Key:
MK2 [1] = molecular target: T1, MK2 (Homo sapiens (Human), UniProt P49137); assay: MK2 modification assessment by whole protein mass spectrometry; format: binding; conditions: intact MK2, 60 min, 10-fold excess of compound to protein
Procedure: Modification of MK2 is measured by whole protein MS analysis. […] 5 μL aliquots of the samples were diluted with 15 μL of 0.2% TFA prior to micro C4 ZipTipping directly onto the MALDI target using sinapinic acid as the desorption matrix (10 mg/ml in 0.1% TFA:Acetonitrile 50:50). Analysis was performed on a AB Sciex 4800 MALDI TOF/TOF retro fitted with an HM2 detector (CovalX). Percent modification of target MK2 (i.e., the percent of total MK2 modified by the test compound) for each compound was calculated by subtracting the centroid mass of the compound treated MK2 from the centroid mass of the control MK2 and dividing that value with the mass of the compound.

[2] = molecular target: p38a activated, mitogen-activated protein kinase-activated protein kinase 2 (MAPKAP-K2 or MK-2) enzyme (Homo sapiens (Human), UniProt P49137); assay: MK2 Omnia continuous-read kinase assay for compound potency; format: biochemical; conditions: [MK-2]=0.4 nM, [ATP]=1.0 mM, [ST3-Sox]=10 μM
Source text: The protocol below describes a continuous-read kinase assay optimized to measure potency of compounds against p38a activated, mitogen-activated protein kinase-activated protein kinase 2 (MAPKAP-K2 or MK-2) enzyme. The mechanics of the assay platform are best described by the vendor (Invitrogen, Carlsbad, Calif.) on their website at the following URL: invitrogen.com/search/global/searchAction. action?resultPage=1 &resultsPerPage=15 &query=om nia&personaFilterTerm=Support+%26+Troubleshoot
Kinase reactions were started with the addition of 40 μL of MK-2 enzyme and monitored every 71 seconds for 30-240 minutes at λex360/λem485 in a Synergy^2, Synergy^4 or Synergy H^4 plate reader from BioTek (Winooski, Vt.). […] Initial velocity (0 minutes to +30 minutes) from each reaction was estimated from the slope of a plot of relative fluorescence units vs time (minutes) and normalized to the no enzyme and no inhibitor control groups for % Inhibition. The resulting % Inhibition values were then plotted against inhibitor concentration to estimate IC50 from log[Inhibitor] vs Response, Variable Slope model in GraphPad Prism from GraphPad Software (San Diego, Calif.).
[MK-2]=0.4 nM, [ATP]=1.0 mM and [ST3-Sox]=10 μM (ATP ^appKM=8-10 μM)

MK2 [3] = molecular target: T1, MK2; assay: MK2 cellular assay (Hsp27 phosphorylation in Thp-1 cells); format: cell-based; conditions: differentiated Thp-1 cells, compound 1 hour, 50 ng/ml LPS 15 minutes, phosphorylation of Hsp27; read-out: MK2EC50
Procedure: Compounds were assayed in Thp-1 human acute monocytic leukemia cells to measure inhibition of MK2 activity. Thp-1 were grown in suspension in T225 flasks. Two days prior to assay, Thp-1 cells were spun down, counted and plated at 1×10^6 cells per well of a 12 well plate in complete media containing 10 ng/ml PMA (phorbol myristate acetate) to differentiate the cells. On day of assay, cells were washed with complete media, and compound was added to differentiated Thp-1 cells for 1 hour. Cells were washed again, and complete media containing 50 ng/ml LPS (lipopolysaccharide) was added. After 15 minutes, cells were washed once with PBS and lysed on ice with BioRad Bioplex lysis buffer. 20 μg total protein from lysates were loaded on gel and blots were probed for phosphorylation of the MK2 substrate Hsp27. Dose response inhibition of MK2 signaling in differentiated Thp-1 cells was used to determine the EC50 for compounds reported in Table A in the column entitled “MK2 EC50.”

T1 sequence (P49137 whole entry): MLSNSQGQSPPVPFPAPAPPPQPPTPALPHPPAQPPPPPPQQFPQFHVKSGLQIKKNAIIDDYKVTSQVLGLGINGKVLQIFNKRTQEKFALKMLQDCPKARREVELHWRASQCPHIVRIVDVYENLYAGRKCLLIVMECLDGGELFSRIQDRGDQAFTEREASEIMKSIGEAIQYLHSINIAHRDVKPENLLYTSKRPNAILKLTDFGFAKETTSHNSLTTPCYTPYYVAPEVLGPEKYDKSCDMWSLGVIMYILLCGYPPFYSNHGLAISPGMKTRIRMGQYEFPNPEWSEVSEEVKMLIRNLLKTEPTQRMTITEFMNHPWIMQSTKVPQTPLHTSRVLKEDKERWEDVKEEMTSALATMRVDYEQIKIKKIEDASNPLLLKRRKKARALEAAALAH
Sequence of p38a activated, mitogen-activated protein kinase-activated protein kinase 2 (MAPKAP-K2 or MK-2) enzyme (P49137 whole entry): as above

MK2 Mass Mod (MK2 [1]) | IC50 [2] [nM] | EC50 (MK2 [3]) [nM] | SMILES
E (mass modification of ≥70%) | 101 to 500 | 101 to 500 | C=CC(=O)Nc1cc(NC(=O)c2ccc3cc4n(c3c2)C2(CCC2)CNC4=O)ccc1F [Compound V-54, N-(3-acrylamido-4-fluorophenyl)-1′-oxo-2′,3′-dihydro-1′H-spiro[cyclobutane-1,4′-pyrazino[1,2-a]indole]-7′-carboxamide]
E (mass modification of ≥70%) | < 100 | 501 to 999 | C=CC(=O)Nc1cc(-c2nccc(-c3cc4c([nH]3)C3(CCCNC3)CNC4=O)n2)ccc1OCCOC (racemic) [Compound I-7, N-(2-(2-methoxyethoxy)-5-(4-(4′-oxo-1′,4′,5′,6′-tetrahydrospiro[piperidine-3,7′-pyrrolo[3,2-c]pyridin]-2′-yl)pyrimidin-2-yl)phenyl)acrylamide]
E (mass modification of ≥70%) | < 100 | 101 to 500 | C=CC(=O)N1CC(C)(C)Oc2ccc(NC(=O)c3ccc4cc5n(c4c3)C3(CCC3)CNC5=O)cc21 [Compound V-51, N-(4-acryloyl-2,2-dimethyl-3,4-dihydro-2H-benzo[b][1,4]oxazin-6-yl)-1′-oxo-2′,3′-dihydro-1′H-spiro[cyclobutane-1,4′-pyrazino [1,2-a]indole]-7′-carboxamide]
E (mass modification of ≥70%) | 101 to 500 | > 1000 | C=CC(=O)Nc1cc(OCC)ccc1Nc1c(C)c(NC2CCCNC2)nc2ccnn12 (stereo not shown) [IV-2, N-(5-ethoxy-2-((6-methyl-5-(piperidin-3-ylamino)pyrazolo [1,5-a]pyrimidin-7-yl)amino)phenyl)acrylamide]
E (mass modification of ≥70%) | < 100 | 101 to 500 | C=CS(=O)(=O)N1CCC[C@@H](NC(=O)c2ccc3sc4c(c3c2)NC[C@@H](C)NC4=O)C1 [III-44]
E (mass modification of ≥70%) | < 100 | < 100 | C=CC(=O)Nc1cc(-c2cc3c(cn2)CCc2c-3[nH]c3c2C(=O)NCC3)ccc1OC [II-2, N-(2-methoxy-5-(7-oxo-6,7,8,9,10,11-hexahydro-5H-pyrido[3′,4′:4,5]pyrrolo[2,3-f]isoquinolin-2-yl)phenyl)acrylamide]
E (mass modification of ≥70%) | < 100 | 101 to 500 | C=CC(=O)N1CC(C)Oc2ccc(NC(=O)c3ccc4cc5n(c4c3)C3(CCC3)CNC5=O)cc21 (racemic) [Compound V-50, N-(4-acryloyl-2-methyl-3,4-dihydro-2H-benzo[b][1,4]oxazin-6-yl)-1′-oxo-2′,3′-dihydro-1′H-spiro[cyclobutane-1,4′-pyrazino[1,2-a]indole]-7′-carboxamide (racemic)]
E (mass modification of ≥70%) | < 100 | > 1000 | C=CC(=O)N1C[C@H](C)Oc2ccc(NC(=O)c3ccc4sc5c(c4c3)NC[C@@H](C)NC5=O)cc21 [III-53, (R)—N—((S)-4-acryloyl-2-methyl-3,4-dihydro-2H-benzo[b][1,4]oxazin-6-yl)-3-methyl-5-oxo-2,3,4,5-tetrahydro-1H-benzo[4,5]thieno[3,2-e][1,4]diazepine-9-carboxamide]
 |  | 101 to 500 | C=CC(=O)N1CCC[C@H](NC(=O)c2ccc3sc4c(c3c2)NC[C@@H](C)NC4=O)C1 [III-41]
 | < 100 | < 100 | C=CC(=O)Nc1cc(-c2ccc3c(ccc4sc5c(c43)NC[C@@H](C)NC5=O)n2)ccc1OC(F)(F)F [III-45, (R)—N-(5-(10-methyl-8-oxo-9,10,11,12-tetrahydro-8H-[1,4]diazepino[5′,6′:4,5]thieno[3,2-f]quinolin-3-yl)-2-(trifluoromethoxy)phenyl)acrylamide]
 |  | < 100 | C=CS(=O)(=O)N1CCC[C@H](NC(=O)c2ccc3sc4c(c3c2)NC[C@@H](C)NC4=O)C1 [III-43]
E (mass modification of ≥70%) | < 100 |  | C=CC(=O)N1CCOc2ccc(-c3ncc4c(n3)-c3[nH]c5c(c3CC4)C(=O)NCC5)cc21 [II-24, 2-(4-acryloyl-3,4-dihydro-2H-benzo[b][1,4]oxazin-6-yl)-8,9,10,11-tetrahydro-SH-pyrido[3′,4′:4,5]pyrrolo[3,2-h]i quinazolin-7(6H)-one]

More lines, now with the values behind:

SMILES | MK2 Mass Mod (MK2 [1]) | IC50 [2] [nM] | EC50 (MK2 [3]) [nM]
C=CC(=O)N1CCOc2ccc(-c3cc4c(ccc5c6c([nH]c54)CCC6=O)cn3)cc21 [II-e-8, 2-(4-acryloyl-3,4-dihydro-2H-benzo[b][1,4]oxazin-6-yl)-8,9-dihydrocyclopenta[4,5]pyrrolo[2,3-f]isoquinolin-7(10H)-one] | E (mass modification of ≥70%) | < 100 | > 1000
C=CC(=O)Nc1cc(-c2cc3c(ccc4c5c([nH]c43)CCC5=O)cn2)ccc1N1CCN(C(C)=O)CC1 [II-e-23, N-(2-(4-acetylpiperazin-1-yl)-5-(7-oxo-7,8,9,10-tetrahydrocyclopenta[4,5]pyrrolo[2,3-f]isoquinolin-2-yl)phenyl)acrylamide] | E (mass modification of ≥70%) | < 100 | 501 to 999
C=CC(=O)Nc1cc(-c2cc3c(cn2)CCc2c-3[nH]c3c2C(=O)NCC3)cnc1N1CCN(C)CC1 [II-26, N-(2-(4-methylpiperazin-1-yl)-5-(7-oxo-6,7,8,9,10,11-hexahydro-SH-pyrido[3′,4′:4,5]pyrrolo[2,3-f]isoquinolin-2-yl)pyridin-3-yl)acrylamide] | E (mass modification of ≥70%) | < 100 | 101 to 500
C=CC(=O)N1CC(C)Oc2ccc(-c3cc4c(ccc5c6c([nH]c54)CCC6=O)cn3)cc21 (stereo not shown) [II-e-17, 2-(4-acryloyl-2-methyl-3,4-dihydro-2H-benzo[b][1,4]oxazin-6-yl)-8,9-dihydrocyclopenta[4,5]pyrrolo[2,3-f]isoquinolin-7(10H)-one] | E (mass modification of ≥70%) | < 100 | 501 to 999
C=CC(=O)Nc1cc(-c2cc3c(cn2)CCc2c-3[nH]c3c2C(=O)NCC3)cnc1OC [II-4, N-(2-methoxy-5-(7-oxo-6,7,8,9,10,11-hexahydro-5H-pyrido[3′,4′:4,5]pyrrolo[2,3-f]isoquinolin-2-yl)pyridin-3-yl)acrylamide] | E (mass modification of ≥70%) | < 100 | < 100
C=CC(=O)Nc1cc(-c2cc3c(cn2)CCc2c-3[nH]c3c2C(=O)NC2(CC2)C3)ccc1F [II-6, N-(2-fluoro-5-(7′-oxo-5′,6′,7′,8′,10′,11′-hexahydrospiro[cyclopropane-1,9′-pyrido[3′,4′:4,5]pyrrolo[2,3-f]isoquinolin]-2′-yl)phenyl)acrylamide] | E (mass modification of ≥70%) | < 100 | < 100
C=CC(=O)Nc1cc(Cl)cc2oc(-c3ccc4cc5n(c4c3)C3(CCC3)CNC5=O)nc12 [Compound V-62, N-(6-chloro-2-(1′-oxo-2′,3′-dihydro-1′H-spiro[cyclobutane-1,4′-pyrazino [1,2-a]indol]-7′-yl)benzo[d]oxazol-4-yl)acrylamide] | E (mass modification of ≥70%) | 101 to 500 | 101 to 500
C=CC(=O)Nc1cc(C)cc(-c2cc3c(ccc4c5c([nH]c43)CCC5=O)cn2)c1 [II-e-22, N-(3-methyl-5-(7-oxo-7,8,9,1-tetrahydrocyclopenta[4,5]pyrrolo[2,3-f]isoquinolin-2-yl)phenyl)acrylamide] |  | 101 to 500 | 101 to 500
C=CC(=O)N1CCOc2ncc(-c3cc4c(cn3)CCc3c-4[nH]c4c3C(=O)NCC4)cc21 [II-18, 2-(1-acryloyl-2,3-dihydro-1H-pyrido[2,3-b][1,4]oxazin-7-yl)-8,9,10,11-tetrahydro-SH-pyrido[3′,4′:4,5]pyrrolo[2,3-f]isoquinolin-7(6H)-one] | E (mass modification of ≥70%) | < 100 | 
